Reference: ChEMBL document CHEMBL6134832, “Expanding the utilization of binding pockets proves to be effective for noncovalent small molecule inhibitors against SARS-CoV-2 Mpro” (Eur J Med Chem, 2025)
Activity calls are given as the source filed them. The calls are words filed in the database; no cut-off is given here.

What was measured:
Format in all cases: functional, organism-based
[1] = system: SARS-CoV-2; test: Antiviral activity against SARS-CoV-2 omicron BA.5 variant infected in K18-hACE2 transgenic mouse model assessed as reduction in viral RNA loads in lung at 30 mg/kg, po pretreated for 2 hrs followed by viral infection and measured on 2 dpi; settings: Severe acute respiratory syndrome coronavirus 2, time 50.0 hrs
[2] = system: SARS-CoV-2; test: Antiviral activity against SARS-CoV-2 omicron BA.5 variant infected in K18-hACE2 transgenic mouse model assessed as septal thickening in lung at 40 mg/kg, po pretreated for 2 hrs followed by viral infection and measured on 2 dpi; settings: Severe acute respiratory syndrome coronavirus 2, time 50.0 hrs
[3] = system: SARS-CoV-2; test: Antiviral activity against SARS-CoV-2 omicron BA.5 variant infected in K18-hACE2 transgenic mouse model assessed as reduction in viral titers in lung at 30 mg/kg, po pretreated for 2 hrs followed by viral infection and measured on 2 dpi; settings: Severe acute respiratory syndrome coronavirus 2, time 50.0 hrs
[4] = system: SARS-CoV-2; test: Antiviral activity against SARS-CoV-2 omicron BA.5 variant infected in po dosed K18-hACE2 transgenic mouse model assessed as reduction in viral RNA loads in lung pretreated for 2 hrs followed by viral infection and measured on 2 dpi; settings: Severe acute respiratory syndrome coronavirus 2, time 50.0 hrs
[5] = system: SARS-CoV-2; test: Antiviral activity against SARS-CoV-2 omicron BA.5 variant infected in K18-hACE2 transgenic mouse model assessed as inflammatory cell infiltration in lung at 40 mg/kg, po pretreated for 2 hrs followed by viral infection and measured on 2 dpi; settings: Severe acute respiratory syndrome coronavirus 2, time 50.0 hrs
[6] = system: SARS-CoV-2; test: Antiviral activity against SARS-CoV-2 omicron BA.5 variant infected in K18-hACE2 transgenic mouse model assessed as reduction in viral titers in lung at 20 to 80 mg/kg, po pretreated for 2 hrs followed by viral infection and measured on 2 dpi; settings: Severe acute respiratory syndrome coronavirus 2, dose 20-80 mg/kg, time 50.0 hrs
[7] = system: SARS-CoV-2; test: Antiviral activity against SARS-CoV-2 omicron BA.5 variant infected in K18-hACE2 transgenic mouse model assessed as septal thickening in lung at 40 to 80 mg/kg, po pretreated for 2 hrs followed by viral infection and measured on 2 dpi; settings: Severe acute respiratory syndrome coronavirus 2, dose 40-80 mg/kg, time 50.0 hrs
[8] = system: SARS-CoV-2; test: Antiviral activity against SARS-CoV-2 omicron BA.5 variant infected in K18-hACE2 transgenic mouse model assessed as inflammatory cell infiltration in lung at 40 to 80 mg/kg, po pretreated for 2 hrs followed by viral infection and measured on 2 dpi; settings: Severe acute respiratory syndrome coronavirus 2, dose 40-80 mg/kg, time 50.0 hrs
[9] = system: SARS-CoV-2; test: Antiviral activity against SARS-CoV-2 omicron BA.5 variant infected in K18-hACE2 transgenic mouse model assessed as reduction in viral RNA loads in lung at 80 mg/kg, po pretreated for 2 hrs followed by viral infection and measured on 2 dpi; settings: Severe acute respiratory syndrome coronavirus 2, time 50.0 hrs
[10] = system: SARS-CoV-2; test: Antiviral activity against SARS-CoV-2 omicron BA.5 variant infected in K18-hACE2 transgenic mouse model assessed as reduction in degree of damage at 20 mg/kg, po pretreated for 2 hrs followed by viral infection and measured on 2 dpi; settings: Severe acute respiratory syndrome coronavirus 2, time 50.0 hrs
[11] = system: SARS-CoV-2; test: Antiviral activity against SARS-CoV-2 omicron BA.5 variant infected in K18-hACE2 transgenic mouse model assessed as reduction in disease severity at 20 mg/kg, po pretreated for 2 hrs followed by viral infection and measured on 2 dpi; settings: Severe acute respiratory syndrome coronavirus 2, time 50.0 hrs
[12] = system: SARS-CoV-2; test: Antiviral activity against SARS-CoV-2 omicron BA.5 variant infected in K18-hACE2 transgenic mouse model assessed as septal thickening in lung at 90 mg/kg, po pretreated for 2 hrs followed by viral infection and measured on 2 dpi; settings: Severe acute respiratory syndrome coronavirus 2, time 50.0 hrs
[13] = system: SARS-CoV-2; test: Antiviral activity against SARS-CoV-2 omicron BA.5 variant infected in K18-hACE2 transgenic mouse model assessed as inflammatory cell infiltration in lung at 90 mg/kg, po pretreated for 2 hrs followed by viral infection and measured on 2 dpi; settings: Severe acute respiratory syndrome coronavirus 2, time 50.0 hrs
[14] = system: SARS-CoV-2; test: Antiviral activity against SARS-CoV-2 omicron BA.5 variant infected in K18-hACE2 transgenic mouse model assessed as reduction in viral titers in lung at 15 to 90 mg/kg, po pretreated for 2 hrs followed by viral infection and measured on 2 dpi; settings: Severe acute respiratory syndrome coronavirus 2, dose 15-90 mg/kg, time 50.0 hrs
[15] = system: SARS-CoV-2; test: Antiviral activity against SARS-CoV-2 omicron BA.5 variant infected in K18-hACE2 transgenic mouse model assessed as reduction in disease severity at 15 to 30 mg/kg, po pretreated for 2 hrs followed by viral infection and measured on 2 dpi; settings: Severe acute respiratory syndrome coronavirus 2, dose 15-30 mg/kg, time 50.0 hrs
[16] = system: SARS-CoV-2; test: Antiviral activity against SARS-CoV-2 omicron BA.5 variant infected in K18-hACE2 transgenic mouse model assessed as reduction in degree of damage at 15 to 30 mg/kg, po pretreated for 2 hrs followed by viral infection and measured on 2 dpi; settings: Severe acute respiratory syndrome coronavirus 2, dose 15-30 mg/kg, time 50.0 hrs

SMILES	Activity [1]	Activity [2]	Activity [3]	Activity [4]	Activity [5]	Activity [6]	Activity [7]	Activity [8]	Activity [9]	Activity [10]	Activity [11]	Activity [12]	Activity [13]	Activity [14]	Activity [15]	Activity [16]
Cn1cnc(Cn2c(=O)[nH]/c(=N\c3cc4cn(C)nc4cc3Cl)n(Cc3cc(F)c(F)cc3F)c2=O)n1	Active	Active	Active	Dose-dependent-effect	Mild_effect											
Cn1cc2cc(/N=c3\[nH]c(=O)n(-c4cccnc4)c(=O)n3Cc3cc(F)c(F)cc3F)c(Cl)cc2n1				Dose-dependent-effect		Active	Active	Mild_effect	Active	Active	Active					
Cc1ccc(C#N)cc1Cn1c(=O)n(-c2cncc(SC3CC3)c2)c(=O)[nH]/c1=N\c1cc2cn(C)nc2cc1Cl				Dose-dependent-effect								Active	Mild_effect	Active	Active	Active
